“Also recorded” adds a separate entry of the source.
Legend:
[1] = tested on: mouse model of Rett syndrome; conditions: chronic administration, same paradigm; cited from earlier work
Dyrk1a cHets [2] = assay: Neonatal (1-3)IGF-1 injection in Dyrk1a cHet pups: cortex mass, layer V soma size, p-S6; format: in vivo, mouse
Method: We next aimed to increase mTOR signaling via pharmacological intervention. Because activation of TrkB receptor is decreased in cKOs, treating mice with exogenous BDNF may not be effective. To circumvent this issue while stimulating the same signaling cascades, we injected neonatal pups with (1-3)IGF-1 (GPE), a tripeptide cleaved from the N-terminus of IGF-1 (44). Pups were injected daily from P0 to P7 with 10 μg/g (1-3)IGF-1 or vehicle based on a previously described treatment paradigm (45). Eight hours post-injection on P7, pups were sacrificed, and brains were fixed (FIG. 7F).
(1-3)IGF-1 treatment: (1-3)IGF-1 was acquired from VWR/Bachem (catalog #H-2468.1000) and dissolved in saline with 0.01% BSA fresh every day. Intraperitoneal injections of 10 μg/g (1-3)IGF-1 or vehicle were delivered daily at 8 a.m. starting on P1 and ending on P7. […] Pups were individually removed, injected, and placed back in the home cage with the dam. On P7, 6 hours post-injection, pups were rapidly decapitated for downstream analysis.
Immunohistochemistry: Adult animals were perfused with 4% PFA, and pups underwent rapid decapitation and dissection. After 18 hours post-fixation in 4% PFA, brains were incubated in a 20% sucrose/PBS solution at 4° C. for 2-3 days and embedded in Tissue-Tek OCT compound (Sakura). 40 μm sections were collected on Superfrost/Plus slides and stained. The following primary antibodies were used following antigen retrieval (10 min. in boiling 10× citrate buffer): anti-cleaved caspase 3 (1:1000, Cell Signaling Technology, catalog #9661S), anti-Ctip2 (1:2000, Abcam, catalog #18465), anti-p-S6 Ser235/236 (1:2000, Cell Signaling Technology, catalog #4858S). AlexaFluor-488, -594, and -647-conjugated secondary antibodies (1:2000) were purchased from Invitrogen. DAPI was used for nuclear labeling (Invitrogen, catalog #D3571). Slides were mounted with Vectashield HardSet and images were obtained with an Olympus VS120 microscope and processed using the VS-DESKTOP software (Olympus) or ImageJ (NIH).
For p-S6 intensity, P0, P7, and adult sections were stained with Ctip2 and p-S6 (Ser235/236). […] After image acquisition, Ctip2+ neurons were measured for p-S6 mean gray intensity. 25-30 neurons were measured per section and 2 plane-matched sections were analyzed per animal.
For soma size analysis, sections were stained with NeuroTrace green fluorescent Nissl stain (1:100 dilution, Life Technologies catalog #N-21480) and washed with PBS. After image acquisition, somas in each layer in somatosensory cortex (51) were measured using the ImageJ freehand tool. Layers were denoted based on anatomical boundaries using DAPI staining. 30-35 somas were measured per layer and 2-3 plane-matched sections were analyzed per animal. This was done based on a previously published technique (8).

Dyrk1a cHets [3] = assay: Chronic (1-3)IGF-1 treatment from P14: cortical and neuronal morphology; format: in vivo, mouse
Method: To test whether administration of the active peptide (1-3)IGF-1 restores cortical growth in cHets, we utilized the following paradigm: controls and cHets were treated daily with either (1-3)IGF-1 or vehicle beginning at P14. A behavioral battery began at P56 and daily injections continued until the mice were sacrificed for downstream analysis (FIG. 17A). […] As the impact of loss-of-function Dyrk1a mutations on spine density has not been investigated in vivo, we measured spine density on primary neurites of layer V pyramidal neurons in the mPFC. […] Together, these findings indicate that chronic (1-3)IGF-1 treatment beginning at P14 rescues microcephaly and neuronal undergrowth in Dyrk1a cHets.
(1-3)IGF-1 was acquired from VWR/Bachem (catalog #H-2468.1000) and dissolved in saline with 0.01% BSA fresh every day. Intraperitoneal injections of 10 mg kg′ (1-3)IGF-1 or vehicle were delivered daily at 8 a.m. starting on P14 and ending on P85. […] The S6K1 inhibitor PF-4708671 was acquired from Medkoo Biosciences (#406432) dissolved in 10% DMSO, 10% tween 80 and 80% water. (1-3)IGF-1 (10 mg kg′) and PF-4708671 (50 mg kg^−1) or vehicle were injected subcutaneously into pups from P0 to P7. Rapamycin was acquired from LC laboratories (R-5000) and dissolved in 4% ethanol, 5% tween-80, and 5% PEG400 in PBS. (1-3)IGF-1 (10 mg kg′) and Rapamycin (1 mg kg′) or vehicle were injected subcutaneously into pups from P0 to P7. SB216763 was acquired from TOCRIS (#1616) and dissolved in 5% DMSO and 0.9% saline in dH20. SB216763 (0.5 mg kg′) was injected subcutaneously into pups from P0 to P7.
Adult animals were perfused with 4% PFA and pups underwent rapid decapitation and dissection. After 18 hours post-fixation in 4% PFA, brains were incubated in a 20% sucrose/PBS solution at 4° C. for 2-3 days and embedded in Tissue-Tek OCT compound (Sakura). 40 μm sections were collected on Superfrost/Plus slides and stained. DAPI was used for nuclear labeling (Invitrogen, catalog #D3571). Slides were mounted with Vectashield HardSet and images were obtained with an Olympus VS120 microscope and processed using the VS-DESKTOP software (Olympus) or ImageJ (NIH). Ventricle size was analyzed by drawing an ROI around the entire ventricle in 2-3 plane-matched sections per animal.
Following rapid decapitation, brains were removed and processed using the FD Rapid Golgistain™ kit (FD Neurotechnologies, Columbia MD) following the manufacturer's instructions. A Leica vibrating microtome was used to cut 100 μm coronal sections in 6% sucrose in PBS. The sections were then mounted on gelatin-coated slides and stained using the FD Rapid Golgistain™ kit. Individual neurons were imaged using a Leica DM5500B 20× objective and reconstructed using Neuromantic software. After reconstruction, Sholl analysis was performed in ImageJ using the Simple Neurite Tracer. Primary neurites were selected for spine density analysis where the number of spines was counted and divided by the length of the neurite fragment. Soma size was measured using the ROI freehand tool on imageJ (NIH).

## (1-3)IGF-1: a tripeptide cleaved from the N-terminus of IGF-1; acquired from VWR/Bachem, CAS No. 32302-76-4 (GPE; Insulin-like growth factor 1; UniProt P05019 49-51, looked up, fragment)
[1]
  lifespan, motor coordination, cardiac function, microcephaly, spine density, and synaptic function: significantly improved
Dyrk1a cHets [2]; control pups, 10 μg/g daily to P7
  cortex mass of controls: no effect
Dyrk1a cHets [2]; neonatal cHets, 10 μg/g daily to P7, Ctip2+ neurons
  p-S6 per layer V neuron in cHets: normal levels; also recorded: rescues the decreased p-S6
Dyrk1a cHets [2]; neonatal cHets, 10 μg/g daily to P7, Nissl stain
  soma size of layer V neurons in cHets: comparable to controls; also recorded: rescues the decreased soma size
Dyrk1a cHets [2]; neonatal cHets, 10 μg/g daily to P7, analysed P7, vs vehicle
  cortex mass of cHets: rescues the decreased cortex mass
Dyrk1a cHets [3]; daily from P14, adult cHets
  neuronal complexity of layer V pyramidal neurons in the mPFC (Sholl analysis): restored the neuronal complexity; also recorded: rescued
  soma size of layer V pyramidal neurons: restored the significantly smaller neuronal soma size; also recorded: rescued
  ventricle area in cHets: normalized; also recorded: rescued
Dyrk1a cHets [3]; daily from P14, adult cHets, primary neurites
  spine density of layer V pyramidal neurons in the mPFC: significantly increased; also recorded: partially restored
Dyrk1a cHets [3]; daily i.p. 10 mg kg from P14, adult cHets
  cortex mass (cortical growth) of cHets: rescued cortical growth in cHets; also recorded: restored
Dyrk1a cHets [3]; daily i.p. 10 mg kg from P14, controls
  cortex mass (cortical growth) of controls: no effect on controls

Source: patent publication US20240148835A1, “TREATING DISORDERS ASSOCIATED WITH DYRK1A DYSFUNCTION” (UNIVERSITY OF FLORIDA RESEARCH FOUNDATION, INCORPORATED, priority 2021, published 2024)
